Measured values reported in patent US9604974B2, “Compounds as modulator of JAK-STAT pathway, methods and applications thereof” (UNIVERSITY OF MYSORE, priority 2015, dated 2017).

Tests used:
phospho-STAT3 (Ser-727) = experiment: Western blot of phospho-STAT3 (Ser-727) in HepG2; assay type: cell-based, human; details: HepG2, 10 μMol/L CIMO
Description: FIG. 2 depicts the suppression of phospho-STAT3 by compound 1 (CIMO) in a dose dependent manner [A]. HepG2 cells (5×10^5/mL) are treated with the indicated concentrations of CIMO for 6 hours, after which whole-cell extracts are prepared and resolved on SDS-PAGE gel, electrotransferred onto nitrocellulose membrane, and probed for phospho-STAT3. The same blot is stripped and reprobed with STAT3 antibody to verify equal protein loading. […] HepG2 cells (5×10^5/mL) are treated with the indicated concentrations of AG490 for about 6 hours, after which Western Blotting is done as described for [A]. [C] depicts the suppression of phospho-STAT3 levels by Compound 1 (CIMO) in a time-dependent manner. HepG2 cells (5×10^5/mL) are treated with 10 μMol/L CIMO for the indicated times, after which Western blotting is done as described for [A]. [D] depicts that compound 1 (CIMO) has no effect on phospho-STAT3 (Ser-727) and STAT3 protein expression. […] HepG2 cells (1×10^5/mL) are incubated with or without 10 μMol/L CIMO for about 6 hours and then analyzed for the intracellular distribution of STAT3 by immunocytochemistry. The same slides are counterstained for nuclei with Hoechst (50 ng/mL) for about 5 minutes and analyzed under an fluorescencemicroscope. […]

STAT3 = experiment: Immunocytochemistry of STAT3 nuclear translocation; assay type: cell-based, human; details: HepG2, 10 μMol/L, about 6 hours
Description: HepG2 cells are plated in chamber slides in DMEM containing 10% FBS and allowed to adhere for about 24 hours. Following treatment with CIMO for about 6 hours, the cells are fixed with cold acetone for about 10 minutes, washed with PBS and blocked with 5% normal goat serum for about 1 hour. The cells are then incubated with rabbit polyclonal anti-human STAT3 Antibody (dilution, 1/100). After overnight incubation, the cells are washed and then incubated with goat anti-rabbit IgG-Alexa 594 ( 1/100) for about 1 hour and counterstained for nuclei with Hoechst (50 ng/ml) for about 5 minutes. Stained cells are mounted with mounting medium (Sigma-Aldrich) and analyzed under a fluorescence microscope (DP 70, Olympus, Tokyo, Japan).

Huh 7-Luc tumors = experiment: Orthotopic human HCC model, bioluminescence tumor growth; assay type: in vivo, athymic nu/nu female mice; details: 10 mg/kg intraperitoneal, five days a week; p value=0.0385
Description: All animal experiments were performed according to protocols approved by the SingHealth Institutional Animal Use and Care Committee. For drug efficacy study, eight week-old athymic nu/nu female mice (from Biolasco, Taiwan) were implanted with the Huh 7-Luc cells orthotopically as described in the below examples. When the bioluminescence signal reached 10^6, mice were treated either with vehicle (1% DMSO), 2 mg/kg of CIMO or 10 mg/kg of CIMO five days a week intraperitoneally. Tumor development was monitored twice a week by measuring the bioluminescence signals. Mice were euthanized when the humane end-point criteria is met by CO2 inhalation. Primary liver tumor and lung tissues were excised, snap-frozen and stored at −80° C. until further analysis.
The antitumor potential of CIMO is tested in vivo via. intra-peritoneal administration in an orthotopic model of human HCC using Huh 7-Luc transfected cells. 100 μl containing 3×10^6 Huh 7-Luc cells are injected subcutaneously in the right flank of Nude mice. When the tumor volume reaches approximately 1 cm^3, tumor is harvested, cut into 2 mm^3 pieces and then implanted orthotopically into the liver of Nude mice. […] The development of tumors is monitored by imaging and quantification of the bioluminescence signals using the Xenogen IVIS system (Caliper Life Sciences, CA). […]

## COc1ccc(C2CNC(c3cn(Cc4ccc(-c5ccccc5C#N)cc4)c4ccccc34)OC23CCCCC3)cc1 (stereo not drawn) [Compound 1]
phospho-STAT3 (Ser-727)
  phosphorylation of S727 of STAT3: no effect
STAT3
  STAT3 in the nucleus: significant decrease
Huh 7-Luc tumors
  tumor growth versus DMSO treated controls: significant inhibition of tumor growth
